20 molecules from BindingDB's records for aid1799744 (Csar, 2012) can be followed below.

For orientation: Ki means the equilibrium dissociation constant of an inhibitor or competing ligand from its target. Low values mean a stronger hold on the target, high ones a looser hold on the target.

The target of the test is Mitogen-activated protein kinase 1 (Homo sapiens, UniProt P28482). Description: Assay 1.
Sequence of Mitogen-activated protein kinase 1 (P28482 whole entry): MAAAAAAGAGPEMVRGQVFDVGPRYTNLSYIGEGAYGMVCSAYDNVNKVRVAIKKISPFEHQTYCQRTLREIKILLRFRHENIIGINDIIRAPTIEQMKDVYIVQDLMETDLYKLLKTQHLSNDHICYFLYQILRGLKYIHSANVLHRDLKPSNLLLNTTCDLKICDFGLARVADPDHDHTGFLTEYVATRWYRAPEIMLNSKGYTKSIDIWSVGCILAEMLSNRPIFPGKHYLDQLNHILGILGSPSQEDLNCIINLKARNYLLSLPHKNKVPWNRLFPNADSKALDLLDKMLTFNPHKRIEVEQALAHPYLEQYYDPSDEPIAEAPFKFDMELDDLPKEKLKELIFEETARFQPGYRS

Molecule `CCOC(=O)N1CCC(Nc2ncc(Cl)c(-c3c[nH]c(C(=O)N[C@H](CO)c4cccc(Cl)c4)c3)n2)CC1` [erk000703] gave an inhibition constant (Ki) of 7 nM. For the molecule `Cc1cnc(N[C@H]2CCOC2)nc1-c1cc(C(=O)N[C@H](CO)c2ccccc2)n(C)c1` [erk000704], the Ki stood at 3 nM. This Ki is about 2.3-fold lower than that of the molecule before. For `CCONc1ncc(Cl)c(-c2c[nH]c(C(=O)N[C@H](CO)c3cccc(C)c3)c2)n1` [erk000705] the value was 4 nM. `Cc1cnc(N[C@@H](C)CO)nc1-c1cc(C(=O)N[C@H](CO)c2ccccc2)n(C)c1` [erk000706] yielded an inhibition constant Ki of 6 nM. As to `CC(C)Nc1ncc(Cl)c(-c2c[nH]c(C(=O)N(C)[C@H](CO)c3ccccc3)c2)n1` [erk000708], the inhibitory constant (Ki) came out at 6 nM. `CC[C@@H](CO)Nc1ncc(C)c(-c2c[nH]c(C(=O)N(C)[C@H](CO)c3cccc(Cl)c3)c2)n1` [erk000709] came in with an inhibitory constant (Ki) of 2 nM. Against the preceding molecule, the Ki is about 3-fold lower. The molecule `CC[C@@H](CO)Nc1ncc(Cl)c(-c2cc(C(=O)N[C@H](CO)c3ccccc3)n(C)c2)n1` [erk000710] returned an inhibition constant Ki of 4 nM. This Ki is about 2-fold higher than that of the molecule before. The molecule `CC[C@@H](CO)Nc1ncc(Cl)c(N2CCN(C(=O)N[C@H](CO)c3cccc(Cl)c3)CC2)n1` [erk000711] yielded a Ki of 38 nM. Consider `Fc1cccc(-c2cnoc2-c2c[nH]c3ncc(-c4ccncc4)cc23)c1F` [erk000712], for which the affinity corresponds to a Ki of 191 nM. Compared with the last molecule, the Ki is about 5-fold higher. `CC[C@@H](COC(=O)CCC(=O)O)Nc1ncc(C)c(-c2c[nH]c(C(=O)N[C@H](COC(=O)CCC(=O)O)c3cccc(Cl)c3)c2)n1` [erk000713]: affinity was put at a Ki of 117 nM. The molecule `CC[C@@H](COC(=O)[C@@H](N)C(C)(C)C)Nc1ncc(C)c(-c2c[nH]c(C(=O)N[C@H](COC(=O)[C@@H](N)C(C)(C)C)c3cccc(Cl)c3)c2)n1` [erk000714] gave a Ki of 30 nM. As for `CC[C@@H](COC(=O)[C@@H](NC)C(C)C)Nc1ncc(C)c(-c2c[nH]c(C(=O)N[C@H](COC(=O)[C@@H](NC)C(C)C)c3cccc(Cl)c3)c2)n1` [erk000715], the affinity corresponds to a Ki of 1910 nM. This Ki lies about 64-fold higher than the previous one.

In turn, `CC[C@@H](COC(=O)COCCOC)Nc1ncc(C)c(-c2c[nH]c(C(=O)N[C@H](COC(=O)COCCOC)c3cccc(Cl)c3)c2)n1` [erk000716] had a Ki of 427 nM. `CC[C@@H](COC(=O)[C@H](C)N)Nc1ncc(C)c(-c2c[nH]c(C(=O)N[C@H](COC(=O)[C@H](C)N)c3cccc(Cl)c3)c2)n1` [erk000717] gave a Ki of 38 nM. `CC[C@@H](COC(=O)CCC(=O)N1CCOCC1)Nc1ncc(C)c(-c2c[nH]c(C(=O)N[C@H](COC(=O)CCC(=O)N3CCOCC3)c3cccc(Cl)c3)c2)n1` [erk000718] had an inhibition constant (Ki) of 257 nM. Next, `CC[C@@H](COC(=O)[C@H](CC(C)C)NC)Nc1ncc(C)c(-c2c[nH]c(C(=O)N[C@H](COC(=O)[C@H](CC(C)C)NC)c3cccc(Cl)c3)c2)n1` [erk000719]: 525 nM; `CC[C@@H](COC(=O)C(C)(C)N)Nc1ncc(C)c(-c2c[nH]c(C(=O)N[C@H](COC(=O)C(C)(C)N)c3cccc(Cl)c3)c2)n1` [erk000720]: 200 nM; `CC[C@@H](CO)Nc1ncc(C)c(-c2c[nH]c(C(=O)N[C@H](COP(=O)(O)O)c3cccc(Cl)c3)c2)n1` [erk000721]: 4 nM.

`CC[C@@H](COP(=O)(O)O)Nc1ncc(C)c(-c2c[nH]c(C(=O)N[C@H](CO)c3cccc(Cl)c3)c2)n1` [erk000722]: the affinity, expressed as Ki, was 417 nM. In the case of `C[C@@H]1CCN(C(=O)CC#N)C[C@@H]1N(C)c1nc(Nc2ccc(N3CCOCC3)cc2)nc2[nH]cnc12` [erk000723], the Ki was 407 nM.
